This note sets out measurements from patent US20250304587A1, “WEE1 INHIBITOR, PREPARATION THEREFOR AND USE THEREOF” (JIANGSU TASLY DIYI PHARMACEUTICAL CO., LTD., priority 2022, published 2025).

In general, IC50 refers to the point on the concentration scale where inhibition reaches its midpoint. The term Papp A→B denotes how fast a substance crosses the layer from the apical side. What is called Papp B→A is the apparent permeability from the basolateral to the apical side of a cell layer.

In series [1] the test system is Caco-2 cells. As to the kind of experiment: Membrane permeability in Caco-2 model. The class given is in vitro ADME. The method in brief:
(§1)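 Caco-2 monolayers grown 21-28 days post-seeding, integrity checked by Lucifer Yellow Papp. Apical and basolateral compound levels measured by LC-MS/MS against a standard curve to derive apparent permeability (Papp).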

For series [2], the system named is plasma protein. The series is described as follows: Plasma protein binding (equilibrium dialysis), rat. The class given is in vitro ADME. The note with it: 1 μM, 5 h dialysis. For orientation: In equilibrium dialysis free small molecules cross a membrane that holds back macromolecules.
The subject of series [3] is plasma protein. As to the kind of experiment: Plasma protein binding (equilibrium dialysis), human. Format: in vitro ADME. The note with it: 1 μM, 5 h dialysis.
Series [4] relates to plasma protein. The series is described as follows: Plasma protein binding (equilibrium dialysis), mouse. The conditions noted are these: mouse plasma, 1 μM, 5 h dialysis.
Series [5] can be described thus: Single dose toxicity in rats, maximum tolerated dose.
Series [6] concerns the target hERG potassium channel (Homo sapiens (Human), UniProt Q12809). As to the kind of experiment: hERG potassium channel inhibition, patch clamp in CHO hERG cells. Background: The hERG channel carries a current that helps repolarise heart muscle cells.
In series [7] the test system is BxPC3 cells. As to the kind of experiment: Cell Titer-Glo anti-proliferation, BxPC3 cells. The note with it: Homo sapiens, BXPC-3, 72 h, 3 days, read-out: Anti-proliferative activity BxPC3 (IC50 class). Format: cell-based, human. The essentials:
(§2)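 Each line was exposed to graded compound concentrations for 3 days at 37 °C, 5% CO2, with final DMSO at 0.2%. Viability was measured by Cell Titer-Glo luminescence, with untreated cells as the maximum and medium as the minimum signal. IC50 came from a variable-slope log(inhibitor)-response fit.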

For series [8], the system named is HT-29 cells. The series is described as follows: Cell Titer-Glo anti-proliferation, HT-29 cells. Format: cell-based, human. The conditions noted are these: Homo sapiens, HT-29, 72 h, 3 days, read-out: Anti-proliferative activity HT-29 (IC50 class). The essentials: as §2
(ATP-based viability assays read luminescence as a measure of living cells.)

Series [9] concerns OVCAR-3 cells. As to the kind of experiment: Cell Titer-Glo anti-proliferation, OVCAR-3 cells. The conditions noted are these: Homo sapiens, OVCAR-3, 72 h, 3 days, read-out: Anti-proliferative activity OVCAR-3 (IC50 class). Format: cell-based. The method in brief:
as §2

Series [10] relates to HUVEC cells. The series is described as follows: Cell Titer-Glo anti-proliferation, normal cells HUVEC. The class given is cell-based. The conditions noted are these: Homo sapiens, HUVEC. The essentials: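 Cells were exposed to serial compound concentrations (0.2% DMSO final) for 3 days at 37 °C, 5% CO2, then lysed with Cell Titer-Glo and read by luminescence. Inhibition was referenced to untreated-cell and medium-only controls, and IC50 came from a four-parameter variable-slope log(inhibitor)–response fit.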

Series [11] is described as follows: Membrane permeability in Caco-2 model. Format: in vitro ADME. The conditions noted are these: human, Caco-2, pH 7.4; Caco2, 10 μM, 90 min. The method in brief: as §1
Series [12] in a line: Plasma protein binding (equilibrium dialysis), rat. The class given is in vitro ADME. The conditions noted are these: 5 h dialysis, read-out: Plasma Protein binding (PPB) Rat (converted).
The target of series [13] is CYP1A2 (Homo sapiens (Human), UniProt P05177). The series is described as follows: Cytochrome P450 inhibition (fluorescence), CYP1A2. The note with it: read-out: IC50 CYP1A2. Format: in vitro ADME. On the procedure:
(§3) Enzymatic experiments were performed to quantify the inhibition of CYP450 enzyme activity of each isoform of CYP450 by small molecule inhibitors through fluorescence generated by the oxidation of the substrate by cytochrome P450. […] The Solution B composition used for the experiment was: 40 U/mL G6PDH (Sigma-aldrich, Cat #G6378). The substrate mix was 0.05× Solution A, 0.01× Solution B, 50 mM Potassium Phosphate, 0.01 mM BOMCC/0.01 mM EOMCC/0.001 mM DBOMF. […] The data were analyzed and processed using GraphPad Prism 6 software to obtain IC50 values.

In series [14] the target is CYP2C9 (Homo sapiens (Human), UniProt P11712). As to the kind of experiment: Cytochrome P450 inhibition (fluorescence), CYP2C9. Format: in vitro ADME. The conditions noted are these: read-out: IC50 CYP2C9. As to the method:
as §3

The target in series [15] is CYP2C19 (Homo sapiens (Human), UniProt P33261). As to the kind of experiment: Cytochrome P450 inhibition (fluorescence), CYP2C19. Format: in vitro ADME. The note with it: read-out: IC50 CYP2C19. As to the method: as §3
CYP2C19, sequence (P33261 whole entry): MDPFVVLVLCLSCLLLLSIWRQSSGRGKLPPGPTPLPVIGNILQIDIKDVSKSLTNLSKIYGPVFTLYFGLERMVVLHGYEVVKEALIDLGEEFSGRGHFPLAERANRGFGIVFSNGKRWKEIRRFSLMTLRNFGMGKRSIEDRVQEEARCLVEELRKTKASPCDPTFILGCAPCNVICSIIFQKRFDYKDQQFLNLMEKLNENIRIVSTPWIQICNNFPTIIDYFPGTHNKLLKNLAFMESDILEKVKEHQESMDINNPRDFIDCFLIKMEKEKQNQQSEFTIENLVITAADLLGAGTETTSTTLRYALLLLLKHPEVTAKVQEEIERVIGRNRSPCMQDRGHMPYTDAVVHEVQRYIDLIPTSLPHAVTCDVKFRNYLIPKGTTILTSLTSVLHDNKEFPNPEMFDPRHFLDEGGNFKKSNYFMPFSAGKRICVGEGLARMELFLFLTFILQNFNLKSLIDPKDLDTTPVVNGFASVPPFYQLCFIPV
Series [16] concerns the target CYP2D6 (Homo sapiens (Human), UniProt P10635). The series is described as follows: Cytochrome P450 inhibition (fluorescence), CYP2D6. The conditions noted are these: read-out: IC50 CYP2D6. Format: in vitro ADME. On the procedure: as §3
The target in series [17] is CYP2C8 (Homo sapiens (Human), UniProt P10632). The series is described as follows: Cytochrome P450 inhibition (fluorescence), CYP2C8. Format: in vitro ADME. The conditions noted are these: read-out: IC50 CYP2C8. On the procedure:
as §3

Series [18] deals with CYP 2B6 (Homo sapiens (Human), UniProt P20813). The series is described as follows: Cytochrome P450 inhibition, CYP2B6. The class given is in vitro ADME. As to the method:
as §3

Series [19] is described as follows: Plasma protein binding (equilibrium dialysis), mouse. The conditions noted are these: mouse, plasma.
The mark [20] stands for this setting: female rats, 200 mg/kg by gavage.
Where [21] appears, read: female rats, 300 mg/kg by gavage.
Setting [22] is: female rats, 400 mg/kg by gavage.
[23] abbreviates: female rats, 500 mg/kg by gavage.

Each structure is given as a SMILES string. Where only a bound is given, the exact number is not on record here.

hERG potassium channel, sequence (Q12809 whole entry): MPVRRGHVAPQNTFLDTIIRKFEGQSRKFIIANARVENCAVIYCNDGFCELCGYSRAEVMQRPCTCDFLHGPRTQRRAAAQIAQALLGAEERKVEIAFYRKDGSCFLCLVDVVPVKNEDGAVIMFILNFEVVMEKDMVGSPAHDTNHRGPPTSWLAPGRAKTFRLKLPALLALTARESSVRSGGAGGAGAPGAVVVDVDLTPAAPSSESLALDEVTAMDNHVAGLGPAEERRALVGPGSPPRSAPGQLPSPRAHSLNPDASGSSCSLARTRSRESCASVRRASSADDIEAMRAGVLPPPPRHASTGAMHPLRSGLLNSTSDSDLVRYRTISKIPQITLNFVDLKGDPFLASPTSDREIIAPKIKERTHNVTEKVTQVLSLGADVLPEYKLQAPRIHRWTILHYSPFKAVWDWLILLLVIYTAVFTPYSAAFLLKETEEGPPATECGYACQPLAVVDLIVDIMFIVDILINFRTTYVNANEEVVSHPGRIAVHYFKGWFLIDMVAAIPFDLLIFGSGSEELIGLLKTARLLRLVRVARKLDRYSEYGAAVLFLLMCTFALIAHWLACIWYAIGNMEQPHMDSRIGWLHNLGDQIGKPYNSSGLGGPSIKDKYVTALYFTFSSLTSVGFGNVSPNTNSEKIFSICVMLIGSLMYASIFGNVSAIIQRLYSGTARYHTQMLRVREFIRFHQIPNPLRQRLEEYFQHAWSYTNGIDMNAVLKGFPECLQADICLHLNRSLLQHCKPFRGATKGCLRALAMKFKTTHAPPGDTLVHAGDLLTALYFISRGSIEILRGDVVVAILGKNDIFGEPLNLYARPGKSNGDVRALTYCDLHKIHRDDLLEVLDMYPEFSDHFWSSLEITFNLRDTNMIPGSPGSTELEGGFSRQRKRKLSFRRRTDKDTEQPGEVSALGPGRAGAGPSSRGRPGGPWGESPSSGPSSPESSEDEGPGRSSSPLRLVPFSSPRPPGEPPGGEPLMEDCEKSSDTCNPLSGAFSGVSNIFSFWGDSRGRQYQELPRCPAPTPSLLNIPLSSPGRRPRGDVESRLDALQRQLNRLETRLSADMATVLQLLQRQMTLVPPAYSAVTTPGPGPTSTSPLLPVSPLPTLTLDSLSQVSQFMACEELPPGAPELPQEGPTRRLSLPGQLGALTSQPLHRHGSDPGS
CYP2D6, sequence (P10635 whole entry): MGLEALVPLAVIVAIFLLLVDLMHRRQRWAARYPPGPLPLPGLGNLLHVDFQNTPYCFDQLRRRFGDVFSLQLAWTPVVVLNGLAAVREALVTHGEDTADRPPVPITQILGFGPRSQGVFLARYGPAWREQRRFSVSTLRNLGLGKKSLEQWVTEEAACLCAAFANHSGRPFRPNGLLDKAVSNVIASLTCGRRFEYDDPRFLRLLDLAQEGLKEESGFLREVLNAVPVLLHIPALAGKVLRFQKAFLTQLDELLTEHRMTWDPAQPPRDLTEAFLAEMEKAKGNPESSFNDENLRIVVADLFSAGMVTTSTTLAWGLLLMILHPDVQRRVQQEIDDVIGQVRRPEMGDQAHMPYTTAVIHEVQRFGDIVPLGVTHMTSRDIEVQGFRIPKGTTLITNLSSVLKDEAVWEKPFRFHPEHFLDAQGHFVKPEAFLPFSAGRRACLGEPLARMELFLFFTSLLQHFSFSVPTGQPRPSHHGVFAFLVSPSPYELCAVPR
CYP 2B6, sequence (P20813 whole entry): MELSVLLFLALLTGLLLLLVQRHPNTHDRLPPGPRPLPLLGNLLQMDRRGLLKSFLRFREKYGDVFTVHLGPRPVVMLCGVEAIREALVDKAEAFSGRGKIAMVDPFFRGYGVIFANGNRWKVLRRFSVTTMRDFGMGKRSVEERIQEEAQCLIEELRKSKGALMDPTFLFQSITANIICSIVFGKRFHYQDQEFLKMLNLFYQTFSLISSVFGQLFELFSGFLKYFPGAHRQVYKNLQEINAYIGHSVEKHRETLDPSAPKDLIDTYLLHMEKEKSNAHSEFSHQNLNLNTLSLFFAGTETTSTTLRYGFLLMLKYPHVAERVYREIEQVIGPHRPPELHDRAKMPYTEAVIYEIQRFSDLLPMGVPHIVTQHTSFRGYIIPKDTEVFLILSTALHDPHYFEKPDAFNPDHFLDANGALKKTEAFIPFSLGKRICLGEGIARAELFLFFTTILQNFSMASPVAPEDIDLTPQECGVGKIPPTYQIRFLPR
CYP2C8, sequence (P10632 whole entry): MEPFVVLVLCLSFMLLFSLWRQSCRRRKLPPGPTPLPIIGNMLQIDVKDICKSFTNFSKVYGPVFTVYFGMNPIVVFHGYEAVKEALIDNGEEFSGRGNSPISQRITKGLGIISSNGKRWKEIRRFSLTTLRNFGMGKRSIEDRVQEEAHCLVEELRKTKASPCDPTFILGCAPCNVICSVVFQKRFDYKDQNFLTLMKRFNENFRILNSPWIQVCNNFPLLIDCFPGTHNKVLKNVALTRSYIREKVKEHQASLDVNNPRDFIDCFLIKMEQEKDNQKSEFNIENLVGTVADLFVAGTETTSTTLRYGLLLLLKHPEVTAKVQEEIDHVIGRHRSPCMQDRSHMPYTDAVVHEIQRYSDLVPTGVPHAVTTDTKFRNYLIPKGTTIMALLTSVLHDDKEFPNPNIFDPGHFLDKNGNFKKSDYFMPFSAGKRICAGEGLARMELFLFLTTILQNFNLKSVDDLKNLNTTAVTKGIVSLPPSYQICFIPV
CYP1A2, sequence (P05177 whole entry, canonical isoform): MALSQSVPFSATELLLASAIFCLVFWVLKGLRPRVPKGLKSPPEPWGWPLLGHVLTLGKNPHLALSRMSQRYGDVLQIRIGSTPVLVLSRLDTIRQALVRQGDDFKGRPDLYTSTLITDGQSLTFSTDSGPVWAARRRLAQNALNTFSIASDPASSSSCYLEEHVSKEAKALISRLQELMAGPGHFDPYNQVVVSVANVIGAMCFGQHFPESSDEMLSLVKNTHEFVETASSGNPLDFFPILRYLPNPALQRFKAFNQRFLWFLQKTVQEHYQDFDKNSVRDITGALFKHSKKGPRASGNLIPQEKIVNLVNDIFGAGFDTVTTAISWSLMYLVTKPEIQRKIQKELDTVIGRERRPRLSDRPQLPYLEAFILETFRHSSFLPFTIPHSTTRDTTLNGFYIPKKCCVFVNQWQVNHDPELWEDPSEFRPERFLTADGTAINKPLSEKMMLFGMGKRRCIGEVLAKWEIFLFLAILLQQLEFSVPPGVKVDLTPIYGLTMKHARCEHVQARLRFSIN
CYP2C9, sequence (P11712 whole entry): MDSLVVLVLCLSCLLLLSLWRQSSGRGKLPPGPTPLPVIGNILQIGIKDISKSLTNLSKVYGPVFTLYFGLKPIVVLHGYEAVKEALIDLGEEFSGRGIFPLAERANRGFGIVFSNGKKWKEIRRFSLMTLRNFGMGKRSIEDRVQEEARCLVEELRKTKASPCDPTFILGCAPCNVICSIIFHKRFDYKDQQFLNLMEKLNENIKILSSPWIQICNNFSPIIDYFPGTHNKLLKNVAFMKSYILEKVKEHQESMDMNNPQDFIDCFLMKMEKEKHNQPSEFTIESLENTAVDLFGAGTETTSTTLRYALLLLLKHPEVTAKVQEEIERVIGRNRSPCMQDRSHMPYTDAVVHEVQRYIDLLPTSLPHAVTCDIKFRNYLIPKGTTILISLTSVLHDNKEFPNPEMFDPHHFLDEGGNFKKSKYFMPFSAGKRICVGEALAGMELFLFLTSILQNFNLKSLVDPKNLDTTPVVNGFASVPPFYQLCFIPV

Consider `[2H][C@]1(O)c2nc(-n3c4nc(Nc5ccc(N6CCC7(CCN(C)CC7)CC6)cc5)ncc4c(=O)n3CC=C)ccc2CCC12CC2` [Compound 37b], for which, in series [1] (Caco2), the “Efflux Ration” value was found to be 21.06. Besides, the “Papp A to B” value in series [1] (Caco2, 10 μM, 90 min) is 0.46 10^−6 cm/s. Moreover, in [1] (Caco2, 10 μM, 90 min), the “Papp B to A” value is recorded as 9.69 10^−6 cm/s. Also, in series [2], the “Plasma Protein binding (PPB) Rat” value is recorded as 84.10%. The “Plasma Protein binding (PPB) Human” value in series [3] was 77.58%. For the same compound, the “Plasma Protein binding (PPB) Mouse” value in series [4] was found to be 92.46%. Besides, the “Death Numbers” value in series [5] (setting [20]) is listed as 0; in series [5] (setting [21]) it was 0; in [5] (setting [22]) it was 3; in series [5] (setting [23]) it was 2; in series [5] (male rats, 200 mg/kg by gavage) it was 0; in series [5] (male rats, 300 mg/kg by gavage) it was 0. For the same compound, the “Death Numbers” value is reported as 2 in series [5] (male rats, 400 mg/kg by gavage) and 2 in series [5] (male rats, 500 mg/kg by gavage). For the same compound, the “Death Rate” value in series [5] (setting [20]) is recorded as 0%; in series [5] (setting [21]), 0%; in series [5] (setting [22]) it was 60%; in series [5] (setting [23]), 67%; in series [5] (male rats, 200 mg/kg by gavage), 0%; in [5] (male rats, 300 mg/kg by gavage), 0%. Moreover, the “Death Rate” value in series [5] (male rats, 400 mg/kg by gavage) was 40%; in series [5] (male rats, 500 mg/kg by gavage), 40%. The “hERG Inhibition” value in series [6] (test concentration 5 μM) was determined as 18.00 ± 4.80%; in series [6] (test concentration 20 μM) it was 34.70 ± 4.40%.
Regarding `C=CCn1c(=O)c2cnc(Nc3ccc(N4CCN(C)CC4)cc3)nc2n1-c1cccc(C(C)(C)O)n1` [AZD1775, reference compound], the IC50 is 0.1 to 1 µM in series [7]; 0.1 to 1 µM in [8]; 0.1 to 1 µM in series [9]; over 10 µM in series [10]; over 10 µM in [13]; over 10 µM in series [14]. In addition, the IC50 was 1 to 10 µM in [15], over 10 µM in series [16], over 10 µM in series [17] and over 10 µM in series [18]. For the same compound, the Papp A→B at 90 min, 10 µM in series [11] worked out at 0.8 ×10⁻⁶ cm/s. The compound also gave a Papp B→A at 90 min, 10 µM in series [11] of 15.2 ×10⁻⁶ cm/s. The figures for the fraction unbound at 5 h, 1 µM in series [12] and in [19] were 0.374 and 0.087, respectively.
